Patent US11471474B2, “Pharmaceutical or cosmetic composition for preventing or treating hair loss or promoting hair growth” (priority 2018, dated 2022)

Test system: human hair dermal papilla cells (HHDPC)
Test: MTT cytotoxicity test of cADPR in human hair dermal papilla cells
Type: cell-based
Conditions: cADPR in the concentration range according to the invention (0.01 to 2 ppm tested), 48 hours
Procedure: To confirm cytotoxicity of cADPR in human hair dermal papilla cells (HHDPC), MTT assay which is a representative method for measuring cytotoxicity and determines cytotoxicity by measuring mitochondrial reducing power by dehydrogenase action was conducted.
Human hair dermal papilla cells were cultured in an HDP kit medium (Human hair dermal papilla cell media kit) at 37° C. in a 5% CO2 incubator (manufactured by Thermo Fisher Scientific, USA).
The cultured cells were dispensed into a 24-well plate at a concentration of 3×10^4 cells/well. After 18 hours, the cADPR mixture solutions according to Preparation Examples 1-1 to 1-6 (0.01, 0.05, 0.1, 0.5, 1 and 2 ppm, respectively) were added to each well. Then, the cells were cultured in the 5% CO2 incubator at 37° C. for 48 hours. After 48 hours of the incubation, each well was washed once with PBS (phosphate buffered saline) solution, and added with 50 μl of 5 mg/mL MTT reagent (Sigma, USA) and 450 μl of fresh medium. The wells were incubated for 2.5 hours and then supernatants were removed.

N=c1c2ncn3c2ncn1[C@@H]1O[C@H](COP(=O)(O)OP(=O)(O)OC[C@H]2O[C@@H]3[C@H](O)[C@@H]2O)[C@@H](O)[C@H]1O [cADPR, Cyclic ADP Ribose]
cytotoxicity: no cytotoxicity was observed
